According to ChEMBL document CHEMBL1201862, “PubChem BioAssay data set” (2004):
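Where inhibition never reached the appropriate level, the endpoint shown equals the highest concentration tested. Otherwise, values were interpolated linearly from a five-concentration, 48-hour dose response in 96-well plates. At the GI50, growth is halved.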 Activity calls are given as the source filed them. Rule as the data show it: active = GI50 up to about 1.1 µM and inactive = higher.

Columns and labels:
Assay in all cases: inhibition of tumour cell growth, NCI panel, 48 h
[1] = tested on: SN12C
[2] = tested on: NCI-H460
[3] = tested on: Malme-3M
[4] = tested on: KM12
[5] = tested on: T47D
[6] = tested on: M14
[7] = tested on: COLO 205
[8] = tested on: UACC-257
[9] = tested on: RXF 393
[10] = tested on: HL-60
[11] = tested on: OVCAR-3
[12] = tested on: OVCAR-5
[13] = tested on: HOP-92
[14] = tested on: SK-MEL-5
[15] = tested on: TK-10
[16] = tested on: ACHN
[17] = tested on: NCI-H522
[18] = tested on: MCF7
[19] = tested on: SK-MEL-2
[20] = tested on: SK-MEL-28
[21] = tested on: CAKI-1
[22] = tested on: SNB-75
[23] = tested on: 786-0
[24] = tested on: IGROV-1
[25] = tested on: SK-OV-3
[26] = tested on: HOP-62
[27] = tested on: DU-145
[28] = tested on: SF-295
[29] = tested on: OVCAR-8
[30] = tested on: PC-3
[31] = tested on: NCI-H23
[32] = tested on: MDA-MB-231
[33] = tested on: SNB-19
[34] = tested on: NCI-H226
[35] = tested on: A498
[36] = tested on: HT-29
[37] = tested on: K562
[38] = tested on: RPMI-8226
[39] = tested on: SW-620
[40] = tested on: MOLT-4
[41] = tested on: SF-539
[42] = tested on: MDA-N
[43] = tested on: U-251
[44] = tested on: CCRF-CEM
[45] = tested on: A549
[46] = tested on: HCT-116
[47] = tested on: UACC-62
[48] = tested on: LOX IMVI
[49] = tested on: UO-31
[50] = tested on: HCC 2998
[51] = tested on: MDA-MB-435
[52] = tested on: SR
[53] = tested on: HCT-15
[54] = tested on: SF-268
[55] = tested on: BT-549
[56] = tested on: EKVX
[57] = tested on: NCI/ADR-RES
[58] = tested on: Hs-578T
[59] = tested on: OVCAR-4

Cc1cc(C)c2c(=O)n(CC(O)CN3CCN(c4ncccn4)CC3)sc2n1 (stereo not drawn)
GI50 [1]: 17.8 µM (inactive)
GI50 [2]: 17.5 µM (inactive)
GI50 [3]: 20.1 µM (inactive)
GI50 [4]: 20.8 µM (inactive)
GI50 [5]: 23.4 µM (inactive)
GI50 [6]: 15.7 µM (inactive)
GI50 [7]: 19 µM (inactive)
GI50 [8]: 16.7 µM (inactive)
GI50 [9]: 17.5 µM (inactive)
GI50 [10]: 16.6 µM (inactive)
GI50 [11]: 19.4 µM (inactive)
GI50 [12]: 16.5 µM (inactive)
GI50 [13]: 29 µM (inactive)
GI50 [14]: 20.5 µM (inactive)
GI50 [15]: 18.2 µM (inactive)
GI50 [16]: 18.4 µM (inactive)
GI50 [17]: 13 µM (inactive)
GI50 [18]: 17.9 µM (inactive)
GI50 [19]: 18.7 µM (inactive)
GI50 [20]: 17 µM (inactive)
GI50 [21]: 20 µM (inactive)
GI50 [22]: 15.1 µM (inactive)
GI50 [23]: 14.5 µM (inactive)
GI50 [24]: 29.4 µM (inactive)
GI50 [25]: 18.7 µM (inactive)
GI50 [26]: 20.3 µM (inactive)
GI50 [27]: 16.6 µM (inactive)
GI50 [28]: > 100 µM (inactive)
GI50 [29]: 19.2 µM (inactive)
GI50 [30]: 18.7 µM (inactive)
GI50 [31]: 17.7 µM (inactive)
GI50 [32]: 17.5 µM (inactive)
GI50 [33]: 64.3 µM (inactive)
GI50 [34]: 96.8 µM (inactive)
GI50 [35]: 17.4 µM (inactive)
GI50 [36]: 16.1 µM (inactive)
GI50 [37]: 22.3 µM (inactive)
GI50 [38]: 4.71 µM (inactive)
GI50 [39]: 19.5 µM (inactive)
GI50 [40]: 4 µM (inactive)
GI50 [41]: 17.8 µM (inactive)
GI50 [42]: 16 µM (inactive)
GI50 [43]: 17.8 µM (inactive)
GI50 [44]: 5.79 µM (inactive)
GI50 [45]: 17.5 µM (inactive)
GI50 [46]: 15.6 µM (inactive)
GI50 [47]: 17.8 µM (inactive)
GI50 [48]: 17.1 µM (inactive)
GI50 [49]: 16.4 µM (inactive)
GI50 [50]: 18.9 µM (inactive)
GI50 [51]: 16.6 µM (inactive)
GI50 [52]: 4.79 µM (inactive)
GI50 [53]: 18.8 µM
GI50 [54]: 18.6 µM (inactive)
GI50 [55]: 18.4 µM (inactive)
GI50 [56]: 16 µM (inactive)
GI50 [57]: 31 µM (inactive)
GI50 [58]: 21.4 µM (inactive)
GI50 [59]: 18.6 µM (inactive)

COc1cccc(C2ON=C(c3ccccc3)N2C23CC4CC(CC(C4)C2)C3)c1 (stereo not drawn)
GI50 [1]: > 10 µM (inactive)
GI50 [2]: > 10 µM (inactive)
GI50 [3]: > 10 µM (inactive)
GI50 [4]: > 10 µM (inactive)
GI50 [5]: > 10 µM (inactive)
GI50 [6]: > 10 µM (inactive)
GI50 [7]: > 10 µM (inactive)
GI50 [8]: > 10 µM (inactive)
GI50 [9]: > 10 µM (inactive)
GI50 [10]: 5.09 µM (inactive)
GI50 [11]: 9.04 µM (inactive)
GI50 [12]: > 10 µM (inactive)
GI50 [13]: > 10 µM (inactive)
GI50 [14]: > 10 µM (inactive)
GI50 [15]: > 10 µM (inactive)
GI50 [16]: > 10 µM (inactive)
GI50 [17]: > 10 µM (inactive)
GI50 [18]: > 10 µM (inactive)
GI50 [19]: > 10 µM (inactive)
GI50 [20]: > 10 µM (inactive)
GI50 [21]: > 10 µM (inactive)
GI50 [22]: 8.91 µM (inactive)
GI50 [23]: > 10 µM (inactive)
GI50 [24]: > 10 µM (inactive)
GI50 [25]: > 10 µM (inactive)
GI50 [26]: > 10 µM (inactive)
GI50 [27]: > 10 µM (inactive)
GI50 [28]: > 10 µM (inactive)
GI50 [29]: > 10 µM (inactive)
GI50 [30]: 9.35 µM (inactive)
GI50 [31]: > 10 µM (inactive)
GI50 [32]: > 10 µM (inactive)
GI50 [33]: > 10 µM (inactive)
GI50 [34]: 4.63 µM (inactive)
GI50 [35]: > 10 µM (inactive)
GI50 [36]: > 10 µM (inactive)
GI50 [37]: 8.41 µM (inactive)
GI50 [38]: 7.24 µM (inactive)
GI50 [39]: > 10 µM (inactive)
GI50 [40]: 5.5 µM (inactive)
GI50 [41]: > 10 µM (inactive)
GI50 [42]: > 10 µM (inactive)
GI50 [43]: > 10 µM (inactive)
GI50 [44]: > 10 µM (inactive)
GI50 [45]: > 10 µM (inactive)
GI50 [46]: > 10 µM (inactive)
GI50 [47]: > 10 µM (inactive)
GI50 [48]: > 10 µM (inactive)
GI50 [50]: > 10 µM (inactive)
GI50 [51]: > 10 µM (inactive)
GI50 [52]: 2.09 µM (inactive)
GI50 [53]: > 10 µM
GI50 [54]: > 10 µM (inactive)
GI50 [55]: > 10 µM (inactive)
GI50 [56]: > 10 µM (inactive)
GI50 [57]: > 10 µM (inactive)
GI50 [58]: > 10 µM (inactive)
GI50 [59]: 5.46 µM (inactive)

CCN(C)c1nc(N(C)CC)c2nc(N(C)CC)nc(N(C)CC)c2n1
GI50 [1]: > 100 µM (inactive)
GI50 [2]: > 100 µM (inactive)
GI50 [3]: > 100 µM (inactive)
GI50 [4]: > 100 µM (inactive)
GI50 [5]: > 100 µM (inactive)
GI50 [6]: > 100 µM (inactive)
GI50 [7]: > 100 µM (inactive)
GI50 [8]: > 100 µM (inactive)
GI50 [9]: > 100 µM (inactive)
GI50 [10]: > 100 µM (inactive)
GI50 [11]: > 100 µM (inactive)
GI50 [12]: > 100 µM (inactive)
GI50 [13]: > 100 µM (inactive)
GI50 [14]: > 100 µM (inactive)
GI50 [15]: > 100 µM (inactive)
GI50 [16]: > 100 µM (inactive)
GI50 [17]: > 100 µM (inactive)
GI50 [18]: > 100 µM (inactive)
GI50 [19]: > 100 µM (inactive)
GI50 [20]: > 100 µM (inactive)
GI50 [21]: > 100 µM (inactive)
GI50 [22]: > 100 µM (inactive)
GI50 [23]: > 100 µM (inactive)
GI50 [24]: > 100 µM (inactive)
GI50 [25]: > 100 µM (inactive)
GI50 [26]: > 100 µM (inactive)
GI50 [27]: > 100 µM (inactive)
GI50 [28]: > 100 µM (inactive)
GI50 [29]: > 100 µM (inactive)
GI50 [30]: > 100 µM (inactive)
GI50 [31]: > 100 µM (inactive)
GI50 [32]: > 100 µM (inactive)
GI50 [33]: > 100 µM (inactive)
GI50 [35]: > 100 µM (inactive)
GI50 [36]: > 100 µM (inactive)
GI50 [37]: > 100 µM (inactive)
GI50 [38]: > 100 µM (inactive)
GI50 [39]: > 100 µM (inactive)
GI50 [40]: > 100 µM (inactive)
GI50 [41]: > 100 µM (inactive)
GI50 [42]: > 100 µM (inactive)
GI50 [43]: > 100 µM (inactive)
GI50 [44]: > 100 µM (inactive)
GI50 [45]: > 100 µM (inactive)
GI50 [46]: > 100 µM (inactive)
GI50 [47]: > 100 µM (inactive)
GI50 [48]: > 100 µM (inactive)
GI50 [49]: > 100 µM (inactive)
GI50 [50]: > 100 µM (inactive)
GI50 [51]: > 100 µM (inactive)
GI50 [52]: 26.5 µM (inactive)
GI50 [53]: > 100 µM
GI50 [54]: > 100 µM (inactive)
GI50 [55]: > 100 µM (inactive)
GI50 [56]: > 100 µM (inactive)
GI50 [57]: > 100 µM (inactive)
GI50 [58]: > 100 µM (inactive)
GI50 [59]: > 100 µM (inactive)

N#C[BH2-][n+]1cn(C2CC(OP(=O)(O)OCC3OC(n4ccc(N)nc4=O)CC3O)C(CO)O2)c2nc(N)[nH]c(=O)c21 (stereo not drawn)
GI50 [1]: > 100 µM (inactive)
GI50 [2]: > 100 µM (inactive)
GI50 [3]: > 100 µM (inactive)
GI50 [4]: > 100 µM (inactive)
GI50 [5]: > 100 µM (inactive)
GI50 [7]: > 100 µM (inactive)
GI50 [8]: > 100 µM (inactive)
GI50 [9]: > 100 µM (inactive)
GI50 [10]: > 100 µM (inactive)
GI50 [11]: > 100 µM (inactive)
GI50 [12]: > 100 µM (inactive)
GI50 [13]: > 100 µM (inactive)
GI50 [14]: > 100 µM (inactive)
GI50 [15]: > 100 µM (inactive)
GI50 [16]: > 100 µM (inactive)
GI50 [17]: > 100 µM (inactive)
GI50 [18]: > 100 µM (inactive)
GI50 [19]: > 100 µM (inactive)
GI50 [20]: > 100 µM (inactive)
GI50 [21]: > 100 µM (inactive)
GI50 [22]: > 100 µM (inactive)
GI50 [23]: > 100 µM (inactive)
GI50 [24]: > 100 µM (inactive)
GI50 [25]: > 100 µM (inactive)
GI50 [26]: > 100 µM (inactive)
GI50 [27]: > 100 µM (inactive)
GI50 [28]: > 100 µM (inactive)
GI50 [29]: > 100 µM (inactive)
GI50 [30]: > 100 µM (inactive)
GI50 [31]: > 100 µM (inactive)
GI50 [32]: > 100 µM (inactive)
GI50 [33]: > 100 µM (inactive)
GI50 [34]: > 100 µM (inactive)
GI50 [35]: > 100 µM (inactive)
GI50 [36]: > 100 µM (inactive)
GI50 [37]: > 100 µM (inactive)
GI50 [38]: > 100 µM (inactive)
GI50 [39]: > 100 µM (inactive)
GI50 [40]: > 100 µM (inactive)
GI50 [41]: > 100 µM (inactive)
GI50 [42]: > 100 µM (inactive)
GI50 [43]: > 100 µM (inactive)
GI50 [44]: > 100 µM (inactive)
GI50 [45]: > 100 µM (inactive)
GI50 [46]: > 100 µM (inactive)
GI50 [47]: > 100 µM (inactive)
GI50 [48]: > 100 µM (inactive)
GI50 [49]: > 100 µM (inactive)
GI50 [50]: > 100 µM (inactive)
GI50 [51]: > 100 µM (inactive)
GI50 [52]: > 100 µM (inactive)
GI50 [53]: > 100 µM
GI50 [54]: > 100 µM (inactive)
GI50 [55]: > 100 µM (inactive)
GI50 [56]: > 100 µM (inactive)
GI50 [57]: > 100 µM (inactive)
GI50 [58]: > 100 µM (inactive)
GI50 [59]: > 100 µM (inactive)
